Literature values as cited in patent publication US20030099599A1, “Antibiotic spray” (priority 2001, published 2003).

Tested on: group A streptococcal tonsillopharyngitis
Details: recurrence within 2 months

**Q.** For penicillin, which “GAS tonsillopharyngitis treated with penicillin that recurs” value is on record?
**A.** Its value is “About 25%”.
